Tested on: dopamine reuptake; unilateral nigrostriatal lesioned rats
Assay: Ipsilateral circling behaviour of unilateral nigrostriatal (6-OHDA) lesioned rats
Type: in vivo, rat (CD)
Conditions: methamphetamine challenge 2 mg/kg intraperitoneal; selected rats
Source text: The two tracts of the nigrostriatal dopamine system are independent and are located on either side of the midline of the brain. When one tract is destroyed using the specific neurotoxin, 6-hydroxydopamine (6-OHDA), rats will display characteristic circling behaviour after injection of dopaminergic drugs. The direction of rotation, however, is dependent on the stimulus employed. Drugs which inhibit dopamine reuptake can only function on the unlesioned side of the brain and induce circling towards the lesion site (known as ipsilateral circling.)
Male CD rats (250-300 g: Charles River) were anaesthetised with `Equithesin` type anaesthetic (3.2 ml/kg i.p.) and secured in a stereotaxic frame (David Kopf Small Animal Stereotaxic Instrument DKI 900). After shaving the area, a saggital incision of 1.5-2 cm was made and skin flaps dissected from the skull. A small hole was made in the skull, using a No. 6 dental burr, to allow the tip of a 30 s.w.g. stainless steel cannula to be inserted to the left substantia nigra. This was located by using the following co-ordinates, using skull landmark bregma as the zero reference point; rostral-caudal -2.8; medial-lateral +2.0; dorsal-ventral -8.0 from the surface of the dura, all co-ordinates measured in millimetres. This system of co-ordinates is a modification of the de Groot system as described by Pellegrino et al (A stereotaxic atlas of the rat brain, 2nd Edition, Plenum Press 1979). 6-Hydroxydopamine HBr (2 μg/μl, as base: Sigma Chemical Co.) was injected into the left substantia nigra at 1 μl/min; a total of 8 μg was administered over a period of 4 minutes using an infusion pump (Braun `Perfusor` ED2). After removal of the cannula, the skin flaps were joined with a single everted suture and the animal allowed to recover.
After 21 days, the circling behaviour of the rats was examined. They were placed, individually, in circular plastic arenas (30 cm diameter×12 cm high) for 1 hour, with no access to food or water during this period. […] One `turn` consisted of rotation through 360° in either direction. As rats were always lesioned on the left side of the brain, anticlockwise turns were ipsilateral.
Control values were determined for all rats by observing their spontaneous circling behaviour in the arenas without prior dosing. The mean turns per minute was always less than 1.
The rats were challenged with an intraperitoneal dose of methamphetamine (2 mg/kg) and immediately placed in the arenas. In these experiments circling behaviour was monitored during two periods, 0-1 h and 4-5 h after dosing. Rats giving a mean of more than 5 ipsilateral turns per minute during the first hour in response to methamphetamine were used in subsequent tests. Following selection, the rats were used in groups of 5 or more rats to test the drug under investigation.

CN[C@@H](C)Cc1ccccc1 [methamphetamine, reference compound]
mean response of the group, ipsilateral turns per minute: more than 10 ipsilateral turns per minute
